From US10973832B2, “Muscarinic M1 receptor agonists” (Heptares Therapeutics Limited, priority 2011, dated 2021)

Legend:
Male Wistar rats = assay: Novel object recognition; assay type: in vivo
Description: The novel object recognition paradigm is based on the greater spontaneous exploration of a novel object, compared with a familiar object, shown by rodents (Ennaceur and Delacour, 1988). […] Male Wistar rats were assessed for cognitive ability in a test apparatus comprising an open-field arena placed in a sound-attenuated room under dimmed lighting. Images of the open-field were captured by digital camera, and viewed on a monitor in an adjoining room. Each rat was subjected to the procedure separately and care taken to remove any olfactory/taste cues by cleaning the arena and test objects with alcohol between trials and rats. All tests are video scored blind to treatment. Following a 10-minute habituation period, each rat was placed into the test arena in the presence of two identical objects (plastic shapes). Each rat was placed facing the same direction at the same position in the arena, and the time spent actively exploring the objects during a 5-minute training period (T1) was recorded. The rat is returned to its home cage between tests. After 24 hours, each rat was again placed in the test arena for 5 minutes (T2) in the presence of one of the familiar objects and a novel object, and the time spent exploring both objects again recorded. The presentation order and position of the objects (left/right) was randomized between rats to prevent bias from order or place preference. Doses of 3, 10 or 30 mg/kg of test compound were administered by oral gavage 90 minutes prior to training (n=8). Donepezil (0.1 mg/kg) and galanthamine (3 mg/kg) were administered via intraperitoneal injection 60 minutes prior to training. Vehicle-treated controls were employed for comparison.

[1] = molecular target: T1, human muscarinic M1 receptor (Homo sapiens, UniProt P11229); assay: Phospho-ERK1/2 assay, muscarinic M1; assay type: cell-based; settings: for EC50: CHO cells expressing human M1, phospho-ERK1/2 Alphascreen, read-out: pEC50 M1 (converted); for Emax: CHO, read-out: % Emax cf. ACh (M1)
T1 sequence (P11229 1-460): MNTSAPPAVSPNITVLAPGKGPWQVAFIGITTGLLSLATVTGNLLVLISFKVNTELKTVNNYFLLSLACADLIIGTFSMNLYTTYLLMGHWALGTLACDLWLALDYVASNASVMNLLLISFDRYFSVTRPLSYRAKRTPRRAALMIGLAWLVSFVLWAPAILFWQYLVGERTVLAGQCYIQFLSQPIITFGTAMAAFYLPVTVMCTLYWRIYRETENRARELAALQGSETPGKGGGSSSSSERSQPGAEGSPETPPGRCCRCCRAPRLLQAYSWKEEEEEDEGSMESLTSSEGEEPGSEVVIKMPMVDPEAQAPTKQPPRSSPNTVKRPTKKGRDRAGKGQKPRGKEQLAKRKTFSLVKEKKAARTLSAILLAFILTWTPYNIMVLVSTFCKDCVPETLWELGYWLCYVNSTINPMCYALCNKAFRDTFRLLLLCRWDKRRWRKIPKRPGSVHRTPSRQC
Description: (§1) Functional assays were performed using the Alphascreen Surefire phospho-ERK1/2 assay (Crouch & Osmond, Comb. Chem. High Throughput Screen, 2008). ERK1/2 phosphorylation is a downstream consequence of both Gq/11 and Gi/o protein coupled receptor activation, making it highly suitable for the assessment of M1, M3 (Gq/11 coupled) and M2, M4 receptors (Gi/o coupled), rather than using different assay formats for different receptor subtypes. CHO cells stably expressing the human muscarinic M1, M2, M3 or M4 receptor were plated (25K/well) onto 96-well tissue culture plates in MEM-alpha+10% dialysed FBS. Once adhered, cells were serum-starved overnight. Agonist stimulation was performed by the addition of 5 μL agonist to the cells for 5 min (37° C.). Media was removed and 50 μL of lysis buffer added. After 15 min, a 4 μL sample was transferred to 384-well plate and 7 μL of detection mixture added. Plates were incubated for 2 h with gentle agitation in the dark and then read on a PHERAstar plate reader.
(§2) pEC50 and Emax figures were calculated from the resulting data for each receptor subtype.

[2] = molecular target: T2, human muscarinic M2 receptor (Homo sapiens, UniProt P08172); assay: Phospho-ERK1/2 assay, muscarinic M2; assay type: cell-based; settings: for EC50: CHO cells expressing human M2, phospho-ERK1/2 Alphascreen, read-out: pEC50 M2 (converted); for Emax: CHO, read-out: % Emax cf. ACh (M2)
T2 sequence (P08172 1-466): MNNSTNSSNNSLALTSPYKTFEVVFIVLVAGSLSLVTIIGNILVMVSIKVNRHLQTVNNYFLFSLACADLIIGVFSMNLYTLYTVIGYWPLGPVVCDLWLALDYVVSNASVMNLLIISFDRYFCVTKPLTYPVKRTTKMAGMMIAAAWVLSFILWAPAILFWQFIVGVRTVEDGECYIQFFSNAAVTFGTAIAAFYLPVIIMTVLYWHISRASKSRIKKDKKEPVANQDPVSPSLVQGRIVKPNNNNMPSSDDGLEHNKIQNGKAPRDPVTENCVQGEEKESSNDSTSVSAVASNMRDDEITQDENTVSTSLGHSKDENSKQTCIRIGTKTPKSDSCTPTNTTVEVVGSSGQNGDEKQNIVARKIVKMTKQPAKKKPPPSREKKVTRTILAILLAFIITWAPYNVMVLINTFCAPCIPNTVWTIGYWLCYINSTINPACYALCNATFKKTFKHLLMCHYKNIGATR
Description: as §1, §2

[3] = molecular target: T3, human muscarinic M3 receptor (Homo sapiens, UniProt P20309); assay: Phospho-ERK1/2 assay, muscarinic M3; assay type: cell-based; settings: for EC50: CHO cells expressing human M3, phospho-ERK1/2 Alphascreen, read-out: pEC50 M3 (converted); for Emax: CHO, read-out: % Emax cf. ACh (M3)
T3 construct: expressed in transfected cells
Description: as §1, §2

[4] = molecular target: T4, human muscarinic M4 receptor (Homo sapiens, UniProt P08173); assay: Phospho-ERK1/2 assay, muscarinic M4; assay type: cell-based; settings: for EC50: CHO cells expressing human M4, phospho-ERK1/2 Alphascreen, read-out: pEC50 M4 (converted); for Emax: CHO, read-out: % Emax cf. ACh (M4)
T4 construct: expressed in transfected cells
T4 sequence (P08173 1-479): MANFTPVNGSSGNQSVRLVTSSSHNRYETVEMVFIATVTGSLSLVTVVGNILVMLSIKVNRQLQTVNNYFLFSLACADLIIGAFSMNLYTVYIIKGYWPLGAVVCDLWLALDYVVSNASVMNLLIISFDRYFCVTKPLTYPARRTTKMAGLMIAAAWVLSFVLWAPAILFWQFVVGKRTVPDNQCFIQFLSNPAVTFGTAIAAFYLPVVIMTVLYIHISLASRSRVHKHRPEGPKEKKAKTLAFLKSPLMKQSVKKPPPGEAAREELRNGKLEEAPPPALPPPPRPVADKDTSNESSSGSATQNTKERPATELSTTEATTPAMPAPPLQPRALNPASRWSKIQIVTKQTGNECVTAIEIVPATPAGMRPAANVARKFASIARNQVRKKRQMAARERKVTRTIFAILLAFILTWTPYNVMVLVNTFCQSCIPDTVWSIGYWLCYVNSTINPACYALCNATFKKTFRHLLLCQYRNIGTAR
Description: as §1, §2

[5] = test system: CA1 region of rat hippocampal slices; assay: CA1 cell firing (fEPSP amplitude); assay type: cell-based; settings: five point cumulative concentration-response, 6 slices averaged
Description: Rat hippocampal slices of […] thickness were cut in chilled (<4° C.) artificial cerebrospinal fluid (aCSF, composition in mM: NaCl 127, KCl 1.6, KH2PO4 1.24, MgSO4 1.3, CaCl2 2.4, NaHCO3 26 and D-glucose 10) using vibratome. Slices were maintained in oxygenated (95% O2/5% CO2) aCSF at room temperature for at least 1 hr prior to electrophysiological recording, after which they were transferred to an interface chamber and constantly perfused with warmed (30° C.) oxygenated aCSF at a flow rate of 1.5-3 ml·min−1. Schaffer collaterals were then stimulated (1-20 V, 0.1 ms pulse width, 0.033 Hz) with a concentric bipolar electrode to evoke field excitatory post synaptic potentials (fEPSPs) recorded from the stratum radiatum of the CA1 region.
Experiments were performed to examine the effect of compound compared to […] carbachol (CCh), on the amplitude of fEPSPs in the CA1 region of rat hippocampal slices. 1 μM CCh was initially applied until steady-state, followed by wash, before performing a five point cumulative concentration-response to compound. Each compound was tested on 6 slices and results averaged. Drug preparation; compound was dissolved in 100% DMSO at a stock concentration of 30 mM, and diluted according to requirements, carbamoylcholine chloride (CCh) was purchased from Sigma (Cat #C4382) and dissolved at a stock concentration of 1 mM in ddH2O.

T3 sequence (P20309 whole entry): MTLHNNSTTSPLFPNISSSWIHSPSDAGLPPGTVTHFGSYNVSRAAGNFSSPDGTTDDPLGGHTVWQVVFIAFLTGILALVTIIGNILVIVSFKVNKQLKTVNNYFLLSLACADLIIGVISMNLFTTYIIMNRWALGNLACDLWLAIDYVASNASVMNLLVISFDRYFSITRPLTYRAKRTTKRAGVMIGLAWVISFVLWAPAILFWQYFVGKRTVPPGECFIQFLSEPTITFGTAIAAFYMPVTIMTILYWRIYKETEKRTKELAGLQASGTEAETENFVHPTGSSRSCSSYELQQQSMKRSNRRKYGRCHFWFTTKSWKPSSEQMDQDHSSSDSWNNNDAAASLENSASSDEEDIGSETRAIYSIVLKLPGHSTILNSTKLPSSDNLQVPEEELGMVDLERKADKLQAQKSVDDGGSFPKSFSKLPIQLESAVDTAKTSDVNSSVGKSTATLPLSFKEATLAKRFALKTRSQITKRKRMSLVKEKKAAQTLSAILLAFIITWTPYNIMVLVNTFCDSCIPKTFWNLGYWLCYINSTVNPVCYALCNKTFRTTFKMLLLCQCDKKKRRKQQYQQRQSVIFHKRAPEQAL

| Compound | novel object recognition memory vs vehicle-treated controls (Male Wistar rats; 3 mg/kg intraperitoneal 60 minutes prior to training, p<0.05) | EC50 [1] | Emax [1] | EC50 [2] | Emax [2] | EC50 [3] | Emax [3] | EC50 [4] | Emax [4] | EC50 [5] | novel object recognition memory vs vehicle-treated controls (Male Wistar rats; 0.1 mg/kg intraperitoneal 60 minutes prior to training) |
| --- | --- | --- | --- | --- | --- | --- | --- | --- | --- | --- | --- |
| COc1ccc2c3c1O[C@H]1C[C@@H](O)C=C[C@@]31CCN(C)C2 [galanthamine] | significantly improved novel object recognition memory |  |  |  |  |  |  |  |  |  |  |
| CCOC(=O)N1CCCC(N2CCC(F)(C(=O)NCC(C)C)CC2)CC1 (centres unmarked) [Example 40, ethyl 4-(4-fluoro-4-((2-methylpropyl)carbamoyl)piperidin-1-yl)azepane-1-carboxylate] |  | 0.0457 µM | 106% | > 20 µM | 13% | > 20 µM | 9% | 0.851 µM | 89% | 9.4 µM |  |
| COc1cc2c(cc1OC)C(=O)C(CC1CCN(Cc3ccccc3)CC1)C2 (centres unmarked) [Donepezil, donepezil] |  |  |  |  |  |  |  |  |  |  | without effect on novel object recognition |
| CCOC(=O)N1CCCC(N2CCC(C(=O)NCC(C)C)CC2)CC1 (centres unmarked) [Example 6, ethyl 4-(4-((2-methylpropyl)carbamoyl)piperidin-1-yl)azepane-1-carboxylate] |  | 0.0851 µM | 113% | > 20 µM | 10% | > 20 µM | 33% | 1.05 µM | 76% | 4.1 µM |  |
| CCOC(=O)N1CCCC(N2CCC(F)(C(=O)NC3CCC3)CC2)CC1 (centres unmarked) [Example 55, ethyl 4-(4-fluoro-4-((cyclobutyl)carbamoyl)piperidin-1-yl)azepane-1-carboxylate] |  | 0.186 µM | 75% | > 20 µM | 17% | > 20 µM | 0% | 1.35 µM | 69% |  |  |
| CC#CCOC(=O)N1CCCC(N2CCC(OC)(C(=O)NC3(C)CCC3)CC2)CC1 (centres unmarked) [Example 80, but-2-yn-1-yl 4-{4-methoxy-4-[(1-methylcyclobutyl)carbamoyl]piperidin-1-yl}azepane-1-carboxylate] |  | 0.0372 µM | 89% | > 20 µM | 15% | > 20 µM | 7% | 0.525 µM | 71% |  |  |
| CCOC(=O)N1CCCC(N2CCC(C(=O)NC(C)(C)C(C)C)CC2)CC1 (centres unmarked) [Example 31, ethyl 4-(4-((2,3-dimethylbutan-2-yl)carbamoyl)piperidin-1-yl)azepane-1-carboxylate] |  | 0.0316 µM | 122% | > 20 µM | 0% | > 20 µM | 13% | 0.123 µM | 90% |  |  |
| CCOC(=O)N1CCC(N2CCC(C(=O)NC(C)(C)C(C)C)CC2)CC1 [Example 3] |  | 0.2 µM | 116% | > 20 µM | 6% | > 20 µM | 4% | 0.562 µM | 85% |  |  |
| CCOC(=O)N1CCCC(N2CCC(F)(C(=O)NC(C)(C)CC)CC2)CC1 (centres unmarked) [Example 41, ethyl 4-(4-fluoro-4-((1,1-dimethylpropyl)carbamoyl)piperidin-1-yl)azepane-1-carboxylate] |  | 0.0398 µM | 97% | > 20 µM | 41% | > 20 µM | 12% | 0.257 µM | 88% |  |  |
| CCOC(=O)N1CCCC(N2CCC(C(=O)N(CC)CC3CC3)CC2)CC1 (centres unmarked) [Example 26, ethyl 4-(4-((cyclopropylmethyl)(ethyl)carbamoyl)piperidin-1-yl)azepane-1-carboxylate] |  | 0.447 µM | 95% | > 20 µM | 7% | > 20 µM | 0% | 0.309 µM | 51% |  |  |
